# Measurements taken from ChEMBL document CHEMBL1201862, “PubChem BioAssay data set” (2004).
#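 96-well plates; 48 h exposure; 5 concentrations. Endpoints by linear interpolation between flanking doses. Not reached: highest tested concentration assigned. The concentration for 50% growth inhibition is given as GI50.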 Active and inactive are the calls of the source. No stated cut-off is given here; in the data, active = GI50 up to about 1.1 µM and inactive = higher.
# Columns and labels:
# Assay in all cases: growth of human tumour cells (NCI), 48 h
# [1] = system: 786-0
# [2] = system: ACHN
# [3] = system: BT-549
# [4] = system: HCC 2998
# [5] = system: HCT-116
# [6] = system: HOP-92
# [7] = system: M14
# [8] = system: OVCAR-5
# [9] = system: RPMI-8226
# [10] = system: SF-268
# [11] = system: SF-539
# [12] = system: SK-MEL-28
# [13] = system: SK-MEL-5
# [14] = system: SK-OV-3
# [15] = system: SN12C
# [16] = system: T47D
# [17] = system: TK-10
# [18] = system: A498
SMILES,GI50 [1],GI50 [2],GI50 [3],GI50 [4],GI50 [5],GI50 [6],GI50 [7],GI50 [8],GI50 [9],GI50 [10],GI50 [11],GI50 [12],GI50 [13],GI50 [14],GI50 [15],GI50 [16],GI50 [17],GI50 [18]
CCOC(=O)C(NCc1ccc2c(c1)OCO2)(NC(=O)c1ccccc1)C(F)(F)F (centres undefined),> 100 µM (inactive),> 100 µM (inactive),> 100 µM (inactive),> 100 µM (inactive),89.1 µM (inactive),41.9 µM (inactive),> 100 µM (inactive),> 100 µM (inactive),34.7 µM (inactive),> 100 µM (inactive),> 100 µM (inactive),> 100 µM (inactive),> 100 µM (inactive),> 100 µM (inactive),> 100 µM (inactive),38.3 µM (inactive),> 100 µM (inactive),
CC1CCc2sc3nc(S)n(C)c(=O)c3c2C1 (centres undefined),50.8 µM (inactive),37.3 µM (inactive),96.8 µM (inactive),22.2 µM (inactive),34.5 µM (inactive),17.7 µM (inactive),34.3 µM (inactive),73.1 µM (inactive),36.7 µM (inactive),48.1 µM (inactive),,58.5 µM (inactive),35.1 µM (inactive),81.3 µM (inactive),36.5 µM (inactive),48.5 µM (inactive),63 µM (inactive),
CC(C)=CCC/C(C)=C/CC/C(C)=C/[C@@H]1[C@@H](CO)[C@]1(C)CC/C=C(\C)CCC=C(C)C,18.4 µM (inactive),17.2 µM (inactive),> 100 µM (inactive),,31.2 µM (inactive),16.6 µM (inactive),91.4 µM (inactive),49.4 µM (inactive),25.2 µM (inactive),19.4 µM (inactive),22 µM (inactive),> 100 µM (inactive),46 µM (inactive),> 100 µM (inactive),41.1 µM (inactive),41.3 µM (inactive),55.2 µM (inactive),> 100 µM (inactive)
COc1cc2c3c(c1O)-c1c(ccc(OC)c1OC)CC3N(C)CC2 (centres undefined),> 100 µM (inactive),> 100 µM (inactive),> 100 µM (inactive),,> 100 µM (inactive),> 100 µM (inactive),> 100 µM (inactive),> 100 µM (inactive),> 100 µM (inactive),> 100 µM (inactive),> 100 µM (inactive),,> 100 µM (inactive),> 100 µM (inactive),> 100 µM (inactive),> 100 µM (inactive),> 100 µM (inactive),> 100 µM (inactive)
Clc1ccc(Cc2nc3ccccc3o2)cc1,96.4 µM (inactive),> 100 µM (inactive),35.8 µM (inactive),54 µM (inactive),66.7 µM (inactive),> 100 µM (inactive),> 100 µM (inactive),> 100 µM (inactive),27.6 µM (inactive),> 100 µM (inactive),> 100 µM (inactive),> 100 µM (inactive),31.3 µM (inactive),> 100 µM (inactive),> 100 µM (inactive),27.2 µM (inactive),> 100 µM (inactive),
CC1=C2C(=O)O[C@@H](c3ccoc3)[C@]2(C)CCC1=O [FRAXINELLONONE],> 100 µM (inactive),> 100 µM (inactive),> 100 µM (inactive),> 100 µM (inactive),> 100 µM (inactive),> 100 µM (inactive),> 100 µM (inactive),> 100 µM (inactive),> 100 µM (inactive),,> 100 µM (inactive),> 100 µM (inactive),> 100 µM (inactive),> 100 µM (inactive),> 100 µM (inactive),> 100 µM (inactive),,> 100 µM (inactive)
COc1cccc(CSCC(=O)O)c1,> 100 µM (inactive),> 100 µM (inactive),> 100 µM (inactive),,> 100 µM (inactive),> 100 µM (inactive),> 100 µM (inactive),> 100 µM (inactive),> 100 µM (inactive),> 100 µM (inactive),> 100 µM (inactive),> 100 µM (inactive),> 100 µM (inactive),> 100 µM (inactive),> 100 µM (inactive),> 100 µM (inactive),> 100 µM (inactive),> 100 µM (inactive)
CC(C)(CC(=O)Nc1ccccc1)C(=O)O,> 100 µM (inactive),> 100 µM (inactive),> 100 µM (inactive),,> 100 µM (inactive),> 100 µM (inactive),> 100 µM (inactive),> 100 µM (inactive),> 100 µM (inactive),,> 100 µM (inactive),> 100 µM (inactive),> 100 µM (inactive),> 100 µM (inactive),> 100 µM (inactive),> 100 µM (inactive),> 100 µM (inactive),> 100 µM (inactive)
CCOC(=O)c1nc2cc(C(F)(F)F)ccc2nc1Nc1ccc(OC)cc1,47.4 µM (inactive),86.9 µM (inactive),> 100 µM (inactive),> 100 µM (inactive),46.1 µM (inactive),36.6 µM (inactive),> 100 µM (inactive),> 100 µM (inactive),> 100 µM (inactive),> 100 µM (inactive),> 100 µM (inactive),> 100 µM (inactive),> 100 µM (inactive),,> 100 µM (inactive),95.1 µM (inactive),> 100 µM (inactive),> 100 µM (inactive)
COc1ccc(COCC[C@H](C)OC2OC(CO[Si](C)(C)C(C)(C)C)C(OC(=O)CCCN=[N+]=[N-])C(OC(=O)CCCN=[N+]=[N-])C2OC(=O)CCCN=[N+]=[N-])cc1 (some centres undefined),43.7 µM (inactive),,22.2 µM (inactive),34.4 µM (inactive),19.5 µM (inactive),> 100 µM (inactive),68.5 µM (inactive),89.1 µM (inactive),,35.3 µM (inactive),27.5 µM (inactive),> 100 µM (inactive),9.64 µM (inactive),> 100 µM (inactive),78.3 µM (inactive),31 µM (inactive),> 100 µM (inactive),> 100 µM (inactive)
C[C@@](Br)(C(=O)O)[C@H](Br)C(=O)O,> 100 µM (inactive),> 100 µM (inactive),> 100 µM (inactive),> 100 µM (inactive),> 100 µM (inactive),> 100 µM (inactive),> 100 µM (inactive),> 100 µM (inactive),> 100 µM (inactive),> 100 µM (inactive),,> 100 µM (inactive),> 100 µM (inactive),> 100 µM (inactive),> 100 µM (inactive),> 100 µM (inactive),> 100 µM (inactive),> 100 µM (inactive)
O=[N+]([O-])c1ccccc1S(=O)(=O)c1cc(O)cc2c1NCCC2,12.1 µM (inactive),14.2 µM (inactive),13.2 µM (inactive),25.5 µM (inactive),5.78 µM (inactive),0.612 µM (active),17 µM (inactive),23 µM (inactive),,20.7 µM (inactive),19.1 µM (inactive),18.7 µM (inactive),13.9 µM (inactive),17.9 µM (inactive),21.1 µM (inactive),6.35 µM (inactive),21.4 µM (inactive),13.9 µM (inactive)
COc1ccc(/C=C2\C[C@H]3[C@@H]4CCC5=C/C(=N/O)CC[C@]5(C)[C@H]4CC[C@]3(C)\C2=N\O)cc1,13.1 µM (inactive),5.52 µM (inactive),15.9 µM (inactive),15.8 µM (inactive),5.21 µM (inactive),17.3 µM (inactive),12.4 µM (inactive),36.3 µM (inactive),5.12 µM (inactive),16.9 µM (inactive),,61.8 µM (inactive),11 µM (inactive),42.7 µM (inactive),14.1 µM (inactive),7.98 µM (inactive),37.1 µM (inactive),
O=C1CSC(c2c[nH]c3ccccc23)N1c1ccc(Cl)cc1Cl (centres undefined),> 100 µM (inactive),,> 100 µM (inactive),> 100 µM (inactive),> 100 µM (inactive),> 100 µM (inactive),> 100 µM (inactive),> 100 µM (inactive),> 100 µM (inactive),> 100 µM (inactive),> 100 µM (inactive),> 100 µM (inactive),> 100 µM (inactive),> 100 µM (inactive),> 100 µM (inactive),> 100 µM (inactive),> 100 µM (inactive),
O=C(c1cccs1)N(C(=O)N1CCN(c2ccccc2)CC1)S(=O)(=O)c1ccccc1,23.2 µM (inactive),19.3 µM (inactive),28.2 µM (inactive),40.1 µM (inactive),20.2 µM (inactive),22.9 µM (inactive),17.7 µM (inactive),22.7 µM (inactive),,27.3 µM (inactive),17.9 µM (inactive),22.4 µM (inactive),17 µM (inactive),46.6 µM (inactive),17.5 µM (inactive),12.7 µM (inactive),31.8 µM (inactive),62.2 µM (inactive)
O=C(c1ccco1)n1c2ccc(Br)cc2c2nc3ccccc3nc21,18.7 µM (inactive),27.4 µM (inactive),45.4 µM (inactive),61.1 µM (inactive),46.7 µM (inactive),30.5 µM (inactive),> 100 µM (inactive),> 100 µM (inactive),11.2 µM (inactive),27 µM (inactive),> 100 µM (inactive),> 100 µM (inactive),> 100 µM (inactive),,> 100 µM (inactive),> 100 µM (inactive),45.8 µM (inactive),
